# Data published in patent publication US12265087B2, “Olfactory receptor as microglia marker and use thereof” (DAEGU GYEONGBUK INSTITUTE OF SCIENCE AND TECHNOLOGY, priority 2019, dated 2025).
# Tests used:
# [1] = tested on: primary microglia; experiment: cAMP ELISA in primary microglia; assay type: cell-based, mouse; conditions: 2-PF 0, 100, 500 μM
# Protocol: Primary microglia were seeded in 48-well plates (2×10^5 cells/well) and treated with 30 μM forskolin (#F3917, Sigma Aldrich) or 2-PF (10, 100, 500 μM) for 30 minutes. To confirm the effect of an inhibitor, 1 mM of S Q22536 (#17318-31-9; Calbiochem) was pretreated first for 30 minutes. The cells were lysed in 0.1 M of HCl with 1% Triton X 100 for 10 minutes, the lysate was centrifuged at 600×g for 2 minutes. The resulting supernatant was directly used for cAMP analysis with a cAMP ELISA kit (Enzo Life Science) according to the manufacturer's protocol. An optical density at 405 nm was measured using a VersaMax microplate reader (Molecular Devices).
# [2] = tested on: microglia; experiment: Fura-2/AM calcium imaging of microglia; assay type: cell-based, mouse; conditions: 2-PF 100, 300, 1000 μM
# Protocol: Twenty-four hours after newly isolated microglia were mounted on poly-D-lysine-coated 18-mm aperture microscope cover glasses (#0111580; Marienfeld), the microglia were incubated in a superfusion chamber for 30 minutes. The chamber contained 4 μM of Fura-2/AM (Ca^2+-sensitive fluorescent dye; #F1221; Thermo Fisher Scientific) in Ringer's solution (115 mM NaCl, 2.5 mM KCl, 1 mM CaCl2, 1.5 mM MgCl2, 4.5 mM HEPES, pH 7.4) filtered through a filter with a 0.22-μm pore. After calcium staining culture, the chamber was placed under an inverted microscope and washed with Ringer's solution for 20 minutes prior to […] treatment. Here, a flow rate of the solution is 12 ml/min. Subsequently, primary microglia were treated with 300 μM ATP (#A2383; Sigma Aldrich) for 5 seconds. After washing for 5 minutes, the primary microglia were treated with a 100 μM 2-PF solution for 5 seconds. This step was accomplished with two different concentrations (300 and 1000 μM) of 2-PF solution. Finally, the microglia were treated with a 300 μM ATP solution for 5 seconds. An emitted fluorescent material was photographed every 2 seconds using a CCD camera. Pseudo-color images were converted using fractional fluorescence changes (ΔF/F, Δ[Ca^2+]i). In addition, these images show changes in intracellular calcium ions. […]
# [3] = target: T1, Olfr110 F104W mutation (Mus musculus, UniProt A2RT31, F104W); experiment: Luciferase assay with site-directed Olfr110 mutants; assay type: cell-based; conditions: 2-PF treatment
# T1 construct: Full-length odorant receptor genes from mouse and human genomic DNAs were amplified using appropriate primers; Lucy (N); Flag (N); Rho (N); expressed in transfected cells; host or cells: Hana3A cells
# T1 sequence (A2RT31 1-317 F104W): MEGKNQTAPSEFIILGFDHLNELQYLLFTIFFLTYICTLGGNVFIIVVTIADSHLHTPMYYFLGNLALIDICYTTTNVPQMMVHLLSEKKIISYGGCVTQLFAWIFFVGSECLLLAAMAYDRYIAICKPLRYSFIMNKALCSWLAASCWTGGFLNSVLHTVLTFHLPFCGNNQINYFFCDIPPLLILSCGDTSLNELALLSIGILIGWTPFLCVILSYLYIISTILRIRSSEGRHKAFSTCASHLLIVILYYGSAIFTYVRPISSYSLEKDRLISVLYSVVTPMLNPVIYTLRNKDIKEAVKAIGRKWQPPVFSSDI
# Description: Specific mutant vectors of the Olfr110 structure were generated using PfuUltra High-Fidelity DNA polymerase (#600380; Agilent Technologies). All mutant vectors (F102W; F104W; Y252F; Y259F; F102W/F104W; Y252F/Y259F; F102W/Y252F/Y259F; F104W/Y252F/Y259F; F102W/F104W/Y252F/Y259F) were sequenced in forward and reverse directions (Macrogen).
smiles,measurement,setting,value
"CCCCCc1ccco1 [2-PF, 2-pentylfuran]",cAMP concentration,[1],increased by 2-PF treatment in a concentration dependent manner
same,intracellular calcium ion levels,[2],increased according to an injection amount
same,luciferase activity of Olfr110 F104W mutant,[3],completely lost
